Results on 26 compounds are retold here after US11279712B2, “Macrocyclic compounds that inhibit MCL-1 protein” (AMGEN INC., priority 2017, dated 2022).

The test system of assay [1] is OPM-2 human multiple myeloma cell line. The assay can be described thus: Cell Viability Assay (OPM-2 10 FBS). Type of assay: cell-based. The conditions noted are these: OPM-2 cells, CellTiter-Glo, read-out: OPM-2 10% FBS IC50 IP. The protocol:
Cell Viability Assay (OPM-2 10 FBS)
The human multiple myeloma cell line, OPM-2, was cultured in complete growth medium containing RPMI 1640 and 10% fetal bovine serum (FBS). Cells were seeded into 384-well plates at 3000 cells/well density in complete growth medium containing 10% FBS, and incubated for 16 h with serially diluted test compounds in a 37° C. incubator with 5% CO2. Cell viability was tested using CellTiter-Glo® assay (Promega, Madison, Wis.) according to the manufacturer recommendations. Luminescence was determined using an EnVision® Multilabel plate reader 25 min after the addition of detection reagent. IC50 values were then calculated with Xlfit using a logistical 4-parameter fit model in GraphPad Prism (GraphPad Software, San Diego, Calif.) or in Genedata Screener® (Genedata, Basel, Switzerland).
For orientation: In ATP-based viability assays light output follows the ATP content of the culture.

Assay [2] concerns the target Mcl-1/Bim interaction (recombinant human Mcl-1 residues 171-327) (Homo sapiens (Human), UniProt Q07820). Nature of the assay: Cell Free Mcl-1:Bim Affinity Assay (Mcl-1 HTRF). Type of assay: binding. The conditions noted are these: TR-FRET, 0.1 nM Mcl-1(171-327), 0.05 nM biotin-Bim(51-76). As to the method: Cell Free Mcl-1:Bim Affinity Assay (Mcl-1 HTRF)
The inhibition of the Mcl-1/Bim interaction was measured using a time-resolved fluorescence resonance energy transfer (TR-FRET) assay. The recombinant human Mcl-1 (C-terminally 6×His tagged Mcl-1 containing residues 171-327) was generated at Amgen Inc (Thousand Oaks, Calif.). A biotinylated peptide derived from human Bim (residues 51-76) was purchased from CPC Scientific (San Jose, Calif.). The TR-FRET assay was conducted in a 384-well white OptiPlate™ (PerkinElmer, Waltham, Mass.) in a total volume of 40 μL. The reaction mixture contained 0.1 nM Mcl-1(171-327), 0.05 nM biotin-Bim(51-76), 0.05 nM LANCES Eu-W1024 Anti-6×His (PerkinElmer), 0.072 nM Streptavidin-Xlent (Cisbio, Bedford, Mass.), and serially diluted test compounds in the binding buffer of 20 mM Hepes, pH 7.5, 150 mM NaCl, 0.016 mM Brij®35, and 1 mM dithiothreitol. Test compounds were pre-incubated with Mcl-1(171-327) and biotin-Bim (51-76) for 60 min before addition of the detection mixture (LANCE® Eu-W1024 Anti-6×His and Streptavidin-Xlent). The reaction plates were further incubated overnight and then were read on an Envision® multimode reader (PerkinElmer). Fluorescence signals were measured at 620 nm (40-nm bandwidth) and 665 nm (7.5-nm bandwidth) with a 60 μs delay after excitation at 320 nm (75-nm bandwidth). The signal ratio at 665/620 nm corresponded to the Mcl-1/Bim interaction and was used in all data analyses. The IC50 values of test compounds were determined from duplicate data by analyzing competition curves using a four-parameter sigmoidal model in GraphPad Prism (GraphPad Software, San Diego, Calif.) or in Genedata Screener® (Genedata, Basel, Switzerland).
(In general: Time-resolved FRET reads energy transfer from a long-lived donor to a nearby acceptor.)

Read-outs that look alike come from different tables or passages of the source.

Mcl-1/Bim interaction (recombinant human Mcl-1 residues 171-327), sequence (Q07820 171-327): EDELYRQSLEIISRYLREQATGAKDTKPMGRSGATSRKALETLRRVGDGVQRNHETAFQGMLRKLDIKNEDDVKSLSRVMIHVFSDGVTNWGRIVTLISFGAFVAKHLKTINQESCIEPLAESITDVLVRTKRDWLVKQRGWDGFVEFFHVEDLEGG

As a reminder, the IC50 is the concentration that gives 50% inhibition. Take `C[C@@H]1[C@@H](C)C/C=C/[C@H](CN2CCN3CCOC[C@@H]3C2)[C@@H]2CC[C@H]2CN2C[C@@]3(CCCc4cc(Cl)ccc43)COc3ccc(cc32)C(=O)NS1(=O)=O` (single isomer, unassigned) [Example 37]: the IC50 in assay [1] (Homo sapiens, OPM-2, 16 h) was 451 nM; in assay [2] it was 0.288 nM.
`C[C@@H]1[C@@H](C)CCC[C@H](C(=O)N2CC(F)(F)C2)[C@@H]2CC[C@H]2CN2C[C@@]3(CCCc4cc(Cl)ccc43)COc3ccc(cc32)C(=O)NS1(=O)=O` (single isomer, unassigned) [Example 38]: the IC50 stood at 525 nM in assay [1] (Homo sapiens, OPM-2, 16 h) and 0.517 nM in assay [2].
Regarding `COCCN1CCN(C[C@H]2CCC[C@H](C)[C@@H](C)S(=O)(=O)NC(=O)c3ccc4c(c3)N(C[C@@H]3CC[C@@H]23)C[C@@]2(CCCc3cc(Cl)ccc32)CO4)CC1` (single isomer, unassigned) [Example 39], the values for the IC50 in assay [1] (16 h) and in assay [2] were 535 nM and 0.829 nM, respectively.
On to `C[C@@H]1[C@@H](C)CCC[C@H]([C@@H](C)O)[C@@H]2CC[C@H]2CN2C[C@@]3(CCCc4cc(Cl)ccc43)COc3ccc(cc32)C(=O)NS1(=O)=O` (single isomer, unassigned) [Example 40], for which the concentration for half-maximal inhibition (IC50) in assay [1] (16 h) came to 564 nM; in assay [2], 0.822 nM.
As for `C[C@@H]1[C@@H](C)CCC[C@H](CS(C)(=O)=O)[C@@H]2CC[C@H]2CN2C[C@@]3(CCCc4cc(Cl)ccc43)COc3ccc(cc32)C(=O)NS1(=O)=O` (single isomer, unassigned) [Example 41], the IC50 in assay [1] (16 h) is 567 nM; in assay [2], 0.284 nM.
As to `C[C@@H]1CS(=O)(=O)NC(=O)c2ccc3c(c2)N(C[C@@H]2CC[C@H]2[C@@H](CO)CC[C@@H]1C)C[C@@]1(CCCc2cc(Cl)ccc21)CO3` (single isomer, unassigned) [Example 43], the IC50 is 599 nM in assay [1] (16 h) and 0.268 nM in assay [2].
The like results for `C[C@@H]1[C@@H](C)CCC[C@@H](CS(C)(=O)=O)[C@@H]2CC[C@H]2CN2C[C@@]3(CCCc4cc(Cl)ccc43)COc3ccc(cc32)C(=O)NS1(=O)=O` (single isomer, unassigned) [Example 44] were, in that order, 617 nM and 0.502 nM.
On the same counts, the results for `CC(=O)[C@@H]1CCC[C@H](C)[C@@H](C)S(=O)(=O)NC(=O)c2ccc3c(c2)N(C[C@@H]2CC[C@H]21)C[C@@]1(CCCc2cc(Cl)ccc21)CO3` (single isomer, unassigned) [Example 45] are 675 nM and 0.338 nM.
For the compound `C[C@@H]1[C@@H](C)CCC[C@H](CN2CCOCC2)[C@@H]2CC[C@H]2CN2C[C@@]3(CCCc4cc(Cl)ccc43)COc3ccc(cc32)C(=O)NS1(=O)=O` (single isomer, unassigned) [Example 46], the values for the IC50 in assay [1] (16 h) and in assay [2] were 724 nM and 0.743 nM, respectively.
On the same counts, the results for `C[C@@H]1[C@@H](C)CCC[C@@H]([C@@H](O)C(F)(F)F)[C@@H]2CC[C@H]2CN2C[C@@]3(CCCc4cc(Cl)ccc43)COc3ccc(cc32)C(=O)NS1(=O)=O` (single isomer, unassigned) [Example 47] are 756 nM and 1.61 nM.
`CC(=O)N1CCN2CCN(C[C@H]3CCC[C@H](C)[C@@H](C)S(=O)(=O)NC(=O)c4ccc5c(c4)N(C[C@@H]4CC[C@@H]34)C[C@@]3(CCCc4cc(Cl)ccc43)CO5)C[C@H]2C1` (single isomer, unassigned) [Example 48]: the IC50 in assay [1] (16 h) was determined as 768 nM; in assay [2], 0.329 nM.
For the compound `CC[C@@H](O)[C@@H]1/C=C/C[C@H](C)[C@@H](C)S(=O)(=O)NC(=O)c2ccc3c(c2)N(C[C@@H]2CC[C@H]21)C[C@@]1(CCCc2cc(Cl)ccc21)CO3` (single isomer, unassigned) [Example 49], the IC50 in assay [1] (16 h) is 778 nM; in assay [2], 0.377 nM.
As for `C[C@@H]1[C@@H](C)CCC[C@H](CN2CC3(CCCN3C)C2)[C@@H]2CC[C@H]2CN2C[C@@]3(CCCc4cc(Cl)ccc43)COc3ccc(cc32)C(=O)NS1(=O)=O` (single isomer, unassigned) [Example 50], the results for the IC50 in assay [1] (16 h) and in assay [2] were 785 nM and 0.923 nM, respectively.
On to `C[C@H]1CCC[C@H](CO)[C@@H]2CC[C@H]2CN2C[C@@]3(CCCc4cc(Cl)ccc43)COc3ccc(cc32)C(=O)NS(=O)(=O)C1` (single isomer, unassigned) [Example 51], for which the IC50 in assay [1] (16 h) is 936 nM; in assay [2] it was 0.222 nM.
The like results for `C[C@@H]1[C@@H](C)CCC[C@H](C(=O)O)[C@@H]2CC[C@H]2CN2C[C@@]3(CCCc4cc(Cl)ccc43)COc3ccc(cc32)C(=O)NS1(=O)=O` (single isomer, unassigned) [Example 52] were, in that order, 939 nM and 0.107 nM.
On the same counts, the results for `CC[C@@H](O)[C@H]1/C=C/C[C@H](C)[C@@H](C)S(=O)(=O)NC(=O)c2ccc3c(c2)N(C[C@@H]2CC[C@H]21)C[C@@]1(CCCc2cc(Cl)ccc21)CO3` (single isomer, unassigned) [Example 54] are 989 nM and 0.624 nM.
As to `C[C@@H]1[C@@H](C)CCC[C@H](CN2CCN3CCN(C)C[C@@H]3C2)[C@@H]2CC[C@H]2CN2C[C@@]3(CCCc4cc(Cl)ccc43)COc3ccc(cc32)C(=O)NS1(=O)=O` (single isomer, unassigned) [Example 56], the figures for the IC50 in assay [1] (16 h) and in assay [2] were 1030 nM and 0.52 nM, respectively.
On to `COCCNC(=O)[C@@H]1CCC[C@H](C)[C@@H](C)S(=O)(=O)NC(=O)c2ccc3c(c2)N(C[C@@H]2CC[C@H]21)C[C@@]1(CCCc2cc(Cl)ccc21)CO3` (single isomer, unassigned) [Example 57], for which the IC50 worked out at 1170 nM in assay [1] (Homo sapiens, OPM-2, 16 h) and 0.604 nM in assay [2].
`C[C@@H]1[C@@H](C)CCC[C@H]([C@@H](C)O)[C@@H]2CC[C@H]2CN2C[C@@]3(CCCc4cc(Cl)ccc43)COc3ccc(cc32)C(=O)NS1(=O)=O` (single isomer, unassigned) [Example 58]: the results for the IC50 in assay [1] (16 h) and in assay [2] were 1230 nM and 0.995 nM, respectively.
Regarding `COCC[C@@H]1[C@@H](C)CCC[C@H](CO)[C@@H]2CC[C@H]2CN2C[C@@]3(CCCc4cc(Cl)ccc43)COc3ccc(cc32)C(=O)NS1(=O)=O` (single isomer, unassigned) [Example 59], the IC50 in assay [1] (16 h) worked out at 1320 nM; in assay [2], 0.921 nM.
Take `CC[C@H](O)[C@H]1/C=C/C[C@H](C)[C@@H](C)S(=O)(=O)NC(=O)c2ccc3c(c2)N(C[C@@H]2CC[C@H]21)C[C@@]1(CCCc2cc(Cl)ccc21)CO3` (single isomer, unassigned) [Example 61]: the figures for the IC50 in assay [1] (16 h) and in assay [2] were 1410 nM and 0.281 nM, respectively.
On the same counts, the results for `C[C@@H]1[C@@H](C)CCC[C@H](CO)[C@@H]2CC[C@H]2CN2C[C@@]3(CCCc4cc(Cl)ccc43)COc3ccc(cc32)C(=O)NS1(=O)=O` (single isomer, unassigned) [Example 63] are 1460 nM and 0.997 nM.
Take `C[C@@H]1[C@@H](C)CCC[C@@H]([C@H](O)C(F)(F)F)[C@@H]2CC[C@H]2CN2C[C@@]3(CCCc4cc(Cl)ccc43)COc3ccc(cc32)C(=O)NS1(=O)=O` (single isomer, unassigned) [Example 66]: the IC50 was determined as 1600 nM in assay [1] (16 h) and 7.29 nM in assay [2].
`C[C@@H]1[C@@H](C)CCC[C@H](CN2CCOCC2)[C@@H]2CC[C@H]2CN2C[C@@]3(CCCc4cc(Cl)ccc43)COc3ccc(cc32)C(=O)NS1(=O)=O` (single isomer, unassigned) [Example 67]: the IC50 came out at 1670 nM in assay [1] (16 h) and 1.05 nM in assay [2].
With `C[C@@H]1[C@@H](C)CCC[C@H]([C@H](O)C2CCN(C)CC2)[C@@H]2CC[C@H]2CN2C[C@@]3(CCCc4cc(Cl)ccc43)COc3ccc(cc32)C(=O)NS1(=O)=O` (single isomer, unassigned) [Example 68], the IC50 came to 1670 nM in assay [1] (16 h) and 0.938 nM in assay [2].
The like results for `C[C@H]([C@H]1CCC[C@H](C)[C@@H](C)S(=O)(=O)NC(=O)c2ccc3c(c2)N(C[C@@H]2CC[C@H]21)C[C@@]1(CCCc2cc(Cl)ccc21)CO3)N1CCOCC1` (single isomer, unassigned) [Example 70] were, in that order, 1860 nM and 0.843 nM.
